From US20230085307A1, “PYRIDAZINONE COMPOUND AND HERBICIDE” (NISSAN CHEMICAL CORPORATION, priority 2019, published 2023) come the findings set out here.

The test system of assay [1] is lambsquarters. Kind of assay: Test Example 4: herbicidal effect by soil treatment (Table 19, symbol O). The format is in vivo, lambsquarters (Chenopodium album). An outline of the steps: (§1)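 Emulsion of test compound, water-diluted to predetermined amount, sprayed on soil after sowing (seed depth ~1.5 cm, sterilized diluvial soil). Greenhouse, 25–30° C. Effect graded at three weeks post-spray.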

The test system of assay [2] is wild oat. Briefly: Test Example 4: herbicidal effect by soil treatment (Table 19, symbol I). The format is in vivo, wild oat (Avena fatua). An outline of the steps:
as §1

Assay [3] deals with rice flat sedge. Briefly: Test Example 3: herbicidal effect by foliage application, Wagner pot (Table 18, symbol E). The format is in vivo, rice flat sedge (Cyperus iria). In outline:
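Plants were sown in alluvial soil held under 0.1–0.5 cm standing water and grown 14 days in a greenhouse at 25–30 °C. An emulsifiable formulation, water-diluted to the set dose, was then sprayed onto the foliage, and effects were scored three weeks later using previously defined criteria.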

Assay [4] has as its system persian speedwell. Briefly: Test Example 4: herbicidal effect by soil treatment (Table 19, symbol R). The class given is in vivo, Persian speedwell (Veronica persica). In outline: as §1
In assay [5] the test system is Italian ryegrass. Briefly: Test Example 4: herbicidal effect by soil treatment (Table 19, symbol K). The format is in vivo, Italian ryegrass (Lolium multiflorum). An outline of the steps:
as §1

Assay [6] relates to chickweed. Kind of assay: Test Example 4: herbicidal effect by soil treatment (Table 19, symbol P). The class given is in vivo, common chickweed (Stellaria media). An outline of the steps: as §1
In assay [7] the test system is Japanese bulrush. Kind of assay: Test Example 1: herbicidal activity, application before weed generation under submerged conditions (Table 16, symbol B). The class given is in vivo, Japanese bulrush (Schoenoplectus juncoides). An outline of the steps:
(§2)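 Emulsion formulation, water-diluted to set dose, was put onto the flooded surface (4 cm depth, alluvial soil) the same day weeds were sown and 2.5-leaf rice transplanted. After 3 weeks at 25-30 °C under glass, each species was rated 0 (≤5% kill) to 5 (≥90% kill).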

Assay [8] relates to Japanese bulrush. Kind of assay: Test Example 2: herbicidal activity, application during weed generation under submerged conditions (Table 17, symbol B). To be noted: application during weed generation, submerged conditions. The class given is in vivo, Japanese bulrush (Schoenoplectus juncoides). An outline of the steps:
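Wagner pot, alluvial soil, 4 cm flood; mixed sowing of all species; greenhouse 25° C.–30° C. Emulsifiable formulation, water-diluted to predetermined dose, applied to paddy water at 1–2 leaf stage. Effect rated at 3 wk using the earlier test's scoring criteria.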

Assay [9] concerns chickweed. Briefly: Test Example 5: herbicidal effect by foliage application, plastic box (Table 20, symbol P). The class given is in vivo, common chickweed (Stellaria media). Conditions: foliage application, three weeks after application. In outline:
(§3)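 Post-emergence foliar test in sterilized diluvial soil. Compound applied as water-diluted emulsion at a predetermined rate to 14-day-old plants; evaluation at three weeks.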

The test system of assay [10] is blackgrass. Kind of assay: Test Example 4: herbicidal effect by soil treatment (Table 19, symbol J). The class given is in vivo, blackgrass (Alopecurus myosuroides). An outline of the steps:
as §1

Assay [11] deals with barnyard grass. Briefly: Test Example 4: herbicidal effect by soil treatment (Table 19, symbol H). The class given is in vivo, barnyard grass (Echinochloa crus-galli). In outline:
as §1

Assay [12] relates to blackgrass. Kind of assay: Test Example 5: herbicidal effect by foliage application, plastic box (Table 20, symbol J). The class given is in vivo, blackgrass (Alopecurus myosuroides). Conditions: foliage application, three weeks after application. In outline: as §3
In assay [13] the test system is persian speedwell. Briefly: Test Example 5: herbicidal effect by foliage application, plastic box (Table 20, symbol R). The class given is in vivo, Persian speedwell (Veronica persica). To be noted: foliage application, three weeks after application. In outline:
as §3

The test system of assay [14] is southern crabgrass. Briefly: Test Example 4: herbicidal effect by soil treatment (Table 19, symbol F). The format is in vivo, southern crabgrass (Digitaria ciliaris). In outline:
as §1

Assay [15] concerns oval-leafed pondweed. Briefly: Test Example 1: herbicidal activity, application before weed generation under submerged conditions (Table 16, symbol C). The class given is in vivo, oval-leafed pondweed (Monochoria vaginalis). In outline:
as §2

Assay [16] concerns southern crabgrass. Briefly: Test Example 5: herbicidal effect by foliage application, plastic box (Table 20, symbol F). The class given is in vivo, southern crabgrass (Digitaria ciliaris). To be noted: foliage application, three weeks after application. An outline of the steps:
as §3

In assay [17] the test system is Italian ryegrass. Kind of assay: Test Example 5: herbicidal effect by foliage application, plastic box (Table 20, symbol K). The format is in vivo, Italian ryegrass (Lolium multiflorum). Conditions: foliage application, three weeks after application. An outline of the steps:
as §3

The mark [18] stands for this setting: amount of applied herbicide 214 g/ha.
Where [19] appears, read: amount of applied herbicide 320 g/ha.

For the compound `COc1ccc2c(-c3c(O)c(C)nn(C)c3=O)c(-c3ccccc3OC)sc2c1` [Compound No. 3-065, 5-hydroxy-4-(6-methoxy-2-(2-methoxyphenyl)benzo[b]thiophen-3-yl)-2,6-dimethylpyridazin-3(2H)-one], in assay [1] (setting [18]), the “O: lambsquarters, herbicidal effect grade” value (shortened to “O: lambsquarters”) was 4 (Herbicidal rate of 70% or more and less than 90%). The “I: wild oat, herbicidal effect grade” value in [2] (setting [18]) was 2 (Herbicidal rate of 20% or more and less than 40%). In [3] (214 g/ha), the “herbicidal effect on rice flat sedge (E)” value was 5 (Herbicidal rate of 90% or more (almost completely withered)). The “R: persian speedwell, herbicidal effect grade” value (“R: persian speedwell” below) in [4] (setting [18]) and in [13] (214 g/ha) was 5 (Herbicidal rate of 90% or more (almost completely withered)) each time. Moreover, the “K: Italian ryegrass, herbicidal effect grade” value (from here on “K: Italian ryegrass”) in [5] (setting [18]) is 3 (Herbicidal rate of 40% or more and less than 70%); in assay [17] (214 g/ha), 4 (Herbicidal rate of 70% or more and less than 90%). Moreover, the “P: chickweed, herbicidal effect grade” value in assay [6] (setting [18]) and in [9] (214 g/ha) was 5 (Herbicidal rate of 90% or more (almost completely withered)) each time. Besides, the “Herbicidal effect, B: Japanese bulrush” value in [7] (setting [18]) was 3 (Herbicidal rate of 40% or more and less than 70%). In addition, the “herbicidal effect rating, B: Japanese bulrush” value (from here on “herbicidal effect rating, B”) in assay [8] (AAH 214 g/ha) was 1 (Herbicidal rate of 5% or more and less than 20%). Besides, the “J: blackgrass, herbicidal effect grade” value in assay [10] (setting [18]) was 3 (Herbicidal rate of 40% or more and less than 70%); in [12] (214 g/ha) it was 5 (Herbicidal rate of 90% or more (almost completely withered)). In addition, the “H: barnyard grass, herbicidal effect grade” value (“H: barnyard grass” below) in assay [11] (setting [18]) is recorded as 5 (Herbicidal rate of 90% or more (almost completely withered)). In addition, the “F: southern crabgrass, herbicidal effect grade” value (shortened to “F: southern crabgrass”) in assay [14] (setting [18]) is 3 (Herbicidal rate of 40% or more and less than 70%); in [16] (214 g/ha), 4 (Herbicidal rate of 70% or more and less than 90%). In [15] (setting [18]), the “Herbicidal effect, C: oval-leafed pondweed” value (“Herbicidal effect, C” for short) was 3 (Herbicidal rate of 40% or more and less than 70%).

For `COc1ccc2c(-c3c(O)c(Cl)nn(C)c3=O)c(-c3ccccc3OC)sc2c1` [Compound No. 3-088, 6-chloro-5-hydroxy-4-(6-methoxy-2-(2-methoxyphenyl)benzo[b]thiophen-3-yl)-2-methylpyridazin-3(2H)-one], the “O: lambsquarters” value in assay [1] (setting [19]) was 5 (Herbicidal rate of 90% or more (almost completely withered)). The “I: wild oat, herbicidal effect grade” value in assay [2] (setting [19]) is given as 0 (Herbicidal rate of 5% or less (almost no effect)). The “herbicidal effect on rice flat sedge (E)” value in [3] (320 g/ha) is recorded as 5 (Herbicidal rate of 90% or more (almost completely withered)). Also, the “R: persian speedwell” value in assay [4] (setting [19]) is 4 (Herbicidal rate of 70% or more and less than 90%); in assay [13] (320 g/ha), 5 (Herbicidal rate of 90% or more (almost completely withered)). Besides, the “K: Italian ryegrass” value in [5] (setting [19]) and in assay [17] (320 g/ha) was 0 (Herbicidal rate of 5% or less (almost no effect)) each time. The “P: chickweed, herbicidal effect grade” value in [6] (setting [19]) and in [9] (320 g/ha) was 5 (Herbicidal rate of 90% or more (almost completely withered)) each time. In [7] (setting [19]), the “Herbicidal effect, B: Japanese bulrush” value is recorded as 5 (Herbicidal rate of 90% or more (almost completely withered)). Also, in assay [8] (AAH 320 g/ha), the “herbicidal effect rating, B” value was 3 (Herbicidal rate of 40% or more and less than 70%). Moreover, the “J: blackgrass, herbicidal effect grade” value is 0 (Herbicidal rate of 5% or less (almost no effect)) in assay [10] (setting [19]); 3 (Herbicidal rate of 40% or more and less than 70%) in assay [12] (320 g/ha). In [11] (setting [19]), the “H: barnyard grass” value is given as 5 (Herbicidal rate of 90% or more (almost completely withered)). The “F: southern crabgrass” value in assay [14] (setting [19]) is 4 (Herbicidal rate of 70% or more and less than 90%); in assay [16] (320 g/ha) it was 0 (Herbicidal rate of 5% or less (almost no effect)). In [15] (setting [19]), the “Herbicidal effect, C” value is 5 (Herbicidal rate of 90% or more (almost completely withered)).

For the compound `COc1ccccc1-c1sc2cc(OCC(F)(F)F)ccc2c1-c1c(O)c(C)nn(C)c1=O` [Compound No. 3-116, 5-hydroxy-4-(2-(2-methoxyphenyl)-6-(2,2,2-trifluoroethoxy)benzo[b]thiophen-3-yl)-2,6-di methylpyridazin-3 (2H)-one], in [1] (setting [19]), the “O: lambsquarters” value is reported as 5 (Herbicidal rate of 90% or more (almost completely withered)). Besides, the “I: wild oat, herbicidal effect grade” value in assay [2] (setting [19]) was 3 (Herbicidal rate of 40% or more and less than 70%). Also, the “herbicidal effect on rice flat sedge (E)” value in [3] (320 g/ha) was 5 (Herbicidal rate of 90% or more (almost completely withered)). The “R: persian speedwell” value in [4] (setting [19]) and in assay [13] (320 g/ha) was 5 (Herbicidal rate of 90% or more (almost completely withered)) each time. Moreover, the “K: Italian ryegrass” value in assay [5] (setting [19]) and in assay [17] (320 g/ha) was 5 (Herbicidal rate of 90% or more (almost completely withered)) throughout. The “P: chickweed, herbicidal effect grade” value in [6] (setting [19]) is 4 (Herbicidal rate of 70% or more and less than 90%); in assay [9] (320 g/ha), 5 (Herbicidal rate of 90% or more (almost completely withered)). For the same compound, in assay [7] (setting [19]), the “Herbicidal effect, B: Japanese bulrush” value is listed as 5 (Herbicidal rate of 90% or more (almost completely withered)). Also, the “herbicidal effect rating, B” value in [8] (AAH 320 g/ha) is 3 (Herbicidal rate of 40% or more and less than 70%). Moreover, the “J: blackgrass, herbicidal effect grade” value in [10] (setting [19]) is 4 (Herbicidal rate of 70% or more and less than 90%); in assay [12] (320 g/ha), 5 (Herbicidal rate of 90% or more (almost completely withered)). Besides, the “H: barnyard grass” value in assay [11] (setting [19]) was 5 (Herbicidal rate of 90% or more (almost completely withered)). The “F: southern crabgrass” value in assay [14] (setting [19]) and in assay [16] (320 g/ha) was 5 (Herbicidal rate of 90% or more (almost completely withered)) in each case. The “Herbicidal effect, C” value in assay [15] (setting [19]) is given as 5 (Herbicidal rate of 90% or more (almost completely withered)).
